Data on 2 compounds can be found in patent US8772243B2, “Methods for predicting the response to anti-cancer treatment with an agonist of TLR7 or an agonist of TLR8” (Inserm (Institut National de la Sante et de la Recherche …, priority 2008, dated 2014).

Assay [1] relates to A549 cells. The assay is described as follows: Tumor cell proliferation assay (Alamar blue reduction). Format: cell-based, human. The note with it: 10 μg/ml, ten days. Here is the method:
FIG. 4 TLR7 and 8 induce survival of lung tumor cells. (A) A549 cells were unstimulated, stimulated with loxoribine (10 μg/ml), Poly U (10 μg/ml), or Gardiquimod(10μg/ml) and incubated with Alamar blue for 10 days. Reduction of Alamar blue was then determined by spectrophotometry at 570 and 600 nm. The percentage of reduced Alamar blue was calculated as described by the manufacturer. A549 cells were unstimulated or stimulated with loxoribine, Poly U, Gardiquimod, etoposide, or cycloheximide for 24 h. (B) The percentage of dead cells was determined by Trypan blue exclusion. (C) The DNA content was measured by IP staining after RNAse A treatment. The percentages indicate the proportion of subdiploid (G0/G1) and […]. Data represent mean values±SD from 3 independent experiments (*p<0.05; ** p<0.01, Student test). (D) A549 cells were cultured for 6 h in the presence of loxoribine, Poly U, or Gardiquimod, and the expression of Bcl-2 was assayed using Taq Man Low Density Array technology. The ΔCT values for Bcl-2 expression were calculated by subtraction of the CT value obtained for the 18S housekeeping gene. The ΔΔCT values were obtained by subtraction of ΔCT values for unstimulated cells from those obtained for stimulated cells. The fold increase (arbitrary unit) was obtained by 2^−ΔΔCT.
Human lung cancer cell lines were seeded in 96-well plates (800 cells per well) and left unstimulated or were stimulated with loxoribine, Poly U, or Gardiquimod. The proliferation assay was performed with Alamar blue (AbD Serotec, Cergy Pontoise, France) according to the manufacturer's instructions. Briefly, cells were seeded and stimulated with TLR ligands in 100 μl of medium, and 10 μl of Alamar Blue was added. The optical density in each well was determined at 540 nm and 570 nm after 10 days of culture, and the percentage of reduced Alamar blue was determined. The percentage of reduced Alamar blue in unstimulated cells was determined as 100%, and the percentages of the stimulated cells were determined relative to this value.
A general note: The colour change of resazurin is a common sign of viable cells or microbes.

In assay [2] the test system is 1549, H1355 and SK-MES cells. In words: Chemoresistance by colony formation assay. Format: cell-based, human. The note with it: stimulated with Loxoribine 100 μM and/or polyU 10 μg/ml on days 0, 3, 6, 9. As to the method: Alternatively, chemoresistance was assessed by the colony formation assay. In this assay, 1549, H1355 and SK-MES cells were seeded in 6-well plates (500 cells per well) and incubated for 15 days at 37° under 5% CO2. The cells were left unstimulated or stimulated 100 μM Loxoribine or with 10 μg/ml single-stranded polyU RNA (InvivoGen) on days 0, 3, 6 and 9. On day 12, different anti-cancer agents were added at the respective LD50 (cisplatin and carboplatin 100 μM, navelbine 50 μM, doxorubicine 2 nM). On day 15, the wells ware washed with PBS, and stained with 6% (vol/vol) glutaraldehyde, 0.5% (wt/vol) crystal violet in water for 30 minutes. The cells were washed and the colonies of more than 50 cells counted. Cell survival was calculated as follows: number of colonies after chemotherapy/number of cells seeded on day 0×plating efficiency, where the plating efficiency is number of colonies/number of cells seeded.

The subject of a further assay is A549 and SK-MES cells. The assay is described as follows: Transcriptomic analysis of 182 genes (Taq Man Low Density Array). It counts as cell-based, human. The note with it: 6 h stimulation; versus unstimulated cells. As to the method: FIG. 6 TLR7 and 8 induce regulation of gene transcription. A549 or SK-MES cells were cultured for 6 h in the presence of loxoribine, Poly U, or Gardiquimod. Total RNA was extracted and analyzed for the expression of 182 genes using Taq Man Low Density Array technology. All genes with a value greater than 35 (CT) were excluded from the analysis. The ΔCT values for the expression of all genes were calculated by subtraction of the CT value of the 18S housekeeping gene. The ΔΔCT values were obtained by subtraction of the ΔCT values for unstimulated cells from those obtained for TLR7- or 8-stimulated cells. The fold increase (arbitrary unit) was obtained by 2^−ΔΔCT. Values were then clustered using the Genesis Software.
Total RNA was extracted from A549 or SK-MES cells stimulated with loxoribine, Poly U, or Gardiquimod for 6 h or from purified human lung cancer cells using the RNeasy isolation-kit RNA (Qiagen, Courtaboeuf, France). The integrity and the quantity of the RNA were evaluated with a bioanalyzer-2100 (Agilent Technologies). All samples were assessed for gene expression analysis using the Taq Man Low-Density Array angiogenesis and immune panel (Applied Biosystem). The RT-PCR experiments were carried-out according to the manufacturer's instructions (Applied-Biosystems). Quantitative real-time TaqMan-PCR was performed using Low-Density-Arrays and the 7900 robotic real-time PCR-system (Applied-Biosystems). The 18S primers and probes were used as internal controls. Data were analyzed using the SDS Software v2.2 (Applied-Biosystems). The ΔCT values were calculated for each gene by subtraction of the CT value of the 18S housekeeping gene from the CT of the gene of interest. The ΔΔCT values were obtained by subtraction of the ΔCT values for unstimulated cells from the […]. The fold increase (arbitrary unit) was obtained by 2^−ΔΔCT.

Assay [3] has as its system A549 cells. The assay is described as follows: A549 xenograft in NOD/SCID mice. Format: in vivo.
Procedure: Mice were anesthetized by intra-peritoneal injection of a solution containing 3.2 mg of ketamine (Virbac) and 0.16 mg of xylasine (Rompum 2%, Bayer Healthcare) in 80 μl of PBS (Gibco). Five days prior to experimentation, A549 cells were pre-stimulated with 100 μM Loxoribine (Invivogen) or left unstimulated. For each condition 5×10^6 cells were diluted in 250 μl PBS and injected subcutaneously to 5 mice per group and were re-stimulated either with 50 μl PBS or with 100 nmol of Loxoribine diluted in 50 μl PBS. Stimulating injections into the tumor site were carried out on the day the cells were injected and then on days 3, 6 and 9. The mice then received either 120 μA PBS, or a chemotherapy of cisplatine (2 mg/kg/injection diluted in 120 μl PBS) on days 18, 20 and 22, both intra-peritoneal. The volume of the tumor was determined by measuring the length (Lg), the width (Wi) of the tumor and by calculating (Lg*(Wi*Wi)/2.

Turning to `C=CCn1c(=O)n([C@@H]2O[C@H](CO)[C@@H](O)[C@H]2O)c2nc(N)[nH]c(=O)c21` [loxoribine, 7-allyl-7,8-dihydro-8-oxo-guanosine], in the assay with A549 cells [1], the “increase in reduction of Alamar blue versus unstimulated cells” value is 20%. In addition, the “resistance of colonies to combined anti-cancer agents” value in assay [2] is “more resistant to treatment with combined anti-cancer agents”. For the same compound, in the assay on A549 and SK-MES cells, the “genes down-regulated in both SK-MES and A549 cells” value was “Prolactin (PRL), CD80, Fibronectin-1 (FN-1), A Disintegrin And Metalloproteinase with ThromboSpondin motif 1 (ADAMTS1), and Serpin Peptidase Inhibitor Clade C1 (SERPINC1)”; the “genes up-regulated in A549 cells, but down-regulated in SK-MES cells” value is “Angiopoietin like 3 (ANGPTL3), Serpin Peptidase Inhibitor Clade F1 (SERPINF1), and Angiopoietin 1 (ANGPT1)”; the “genes up-regulated in SK-MES, but down-regulated in A549 cells” value is “ANGPTL1, Platelet Factor 4 (PF4), and fms related tyrosine kinase 4 (FLT4)”; the “genes up-regulated in both SK-MES and A549 cells” value was “Bcl-2, CCR4, and Vasohibin-1 (VASH-1)”. Besides, the “tumor volume by week 14” value with A549 cells [3] (A549 cells pre-stimulated 100 μM, 100 nmol into tumor site days 0, 3, 6, 9, control group 4 cm^3) is recorded as 8 cm^3. In addition, in the assay on A549 cells [3] (Loxoribine mice versus control mice), the metastases at autopsy entry is “more ganglionic and pulmonary metastases than control mice”. Besides, the “time of 50% mortality” value with A549 cells [3] (Loxoribine mice, NS mice towards week 17) was ~15 week. Besides, the “tumor volume seven weeks after injection of tumor cells” value in the assay with A549 cells [3] (PBS-treated Loxoribine pre-stimulated group, PBS-treated NS group 1.9 cm^3) is reported as 5.3 cm^3. Moreover, in the assay on A549 cells [3] (PBS-treated, seven weeks after injection), the “tumor volume ratio, Loxoribine pre-stimulated versus NS group” value is recorded as 2.5 times.

Take Poly U: the “increase in reduction of Alamar blue versus unstimulated cells” value in the assay on A549 cells [1] is given as 20%. Further, the “resistance of colonies to combined anti-cancer agents” value in assay [2] was “more resistant to treatment with combined anti-cancer agents”. In the assay on A549 and SK-MES cells, the “genes down-regulated in both SK-MES and A549 cells” value was “Prolactin (PRL), CD80, Fibronectin-1 (FN-1), A Disintegrin And Metalloproteinase with ThromboSpondin motif 1 (ADAMTS1), and Serpin Peptidase Inhibitor Clade C1 (SERPINC1)”; the “genes up-regulated in A549 cells, but down-regulated in SK-MES cells” value is “Angiopoietin like 3 (ANGPTL3), Serpin Peptidase Inhibitor Clade F1 (SERPINF1), and Angiopoietin 1 (ANGPT1)”; the “genes up-regulated in SK-MES, but down-regulated in A549 cells” value was “ANGPTL1, Platelet Factor 4 (PF4), and fms related tyrosine kinase 4 (FLT4)”; the “genes up-regulated in both SK-MES and A549 cells” value is “Bcl-2, CCR4, and Vasohibin-1 (VASH-1)”.
